Measurements reported in patent publication US20070249620A1, “Urea Derivative” (priority 2004, published 2007).

Row | SMILES | melting point [°C]
1 | CCOP(=O)(Cc1ccc(NC(=O)Nc2ccc(N3CCN(C(=O)Nc4c(C)cccc4Cl)CC3)cc2)cc1)OCC | 218 to 220
2 | COc1ccc(Cl)cc1NC(=O)Nc1ccc(N2CCN(C(=O)OC(C)(C)C)CC2)cc1 [Example 1, 4-{4-[3-(5-chloro-2-methoxy-phenyl)-ureido]-phenyl}-piperazine-1-carboxylic acid tert-butyl ester] | 205
3 | COc1ccc(C)cc1NC(=O)Nc1ccc(N2CCN(C(=O)OC(C)(C)C)CC2)cc1 [Example 2, 4-{4-[3-(2-methoxy-5-methyl-phenyl)-ureido]-phenyl}-piperazine-1-carboxylic acid tert-butyl ester] | 157
4 | CC(C)(C)OC(=O)N1CCN(c2ccc(NC(=O)Nc3cccc(Oc4ccccc4)c3)cc2)CC1 [Example 3, 4-{4-[3-(3-phenoxy-phenyl)-ureido]-phenyl}-piperazine-1-carboxylic acid tert-butyl ester] | 172
5 | CCOc1ccccc1NC(=O)Nc1ccc(N2CCN(C(=O)OC(C)(C)C)CC2)cc1 [Example 4, 4-{4-[3-(2-ethoxy-phenyl)-ureido]-phenyl}-piperazine-1-carboxylic acid tert-butyl ester] | 84
6 | CC(C)(C)OC(=O)N1CCN(c2ccc(NC(=O)Nc3ccccc3[N+](=O)[O-])cc2)CC1 [Example 6, 4-{4-[3-(2-nitro-phenyl)-ureido]-phenyl}-piperazine-1-carboxylic acid tert-butyl ester] | 207
7 | CC(C)(C)OC(=O)N1CCN(c2ccc(NC(=O)Nc3ccccc3Oc3ccccc3)cc2)CC1 [Example 7, 4-{4-[3-(2-phenoxy-phenyl)-ureido]-phenyl}-piperazine-1-carboxylic acid tert-butyl ester] | 186 to 187
8 | CC(C)(C)OC(=O)N1CCN(c2ccc(NC(=O)Nc3cc(Cl)ccc3Oc3ccccc3)cc2)CC1 [Example 8, 4-{4-[3-(5-chloro-2-phenoxy-phenyl)-ureido]-phenyl}-piperazine-1-carboxylic acid tert-butyl ester] | 94 to 96
9 | CC(C)(C)OC(=O)N1CCN(c2ccc(NC(=O)Nc3ccccc3OC(F)F)cc2)CC1 [Example 9, 4-{4-[3-(2-difluoromethoxy-phenyl)-ureido]-phenyl}-piperazine-1-carboxylic acid tert-butyl ester] | 154 to 155
10 | CC(C)(C)OC(=O)N1CCN(c2ccc(NC(=O)Nc3cc(Cl)ccc3[N+](=O)[O-])cc2)CC1 [Example 10, 4-{4-[3-(5-chloro-2-nitro-phenyl)-ureido]-phenyl}-piperazine-1-carboxylic acid tert-butyl ester] | 205
11 | CC(C)(C)OC(=O)N1CCN(c2ccc(NC(=O)Nc3cc(Cl)ccc3N)cc2)CC1 [Example 11, 4-{4-[3-(2-amino-5-chloro-phenyl)-ureido]-phenyl}-piperazine-1-carboxylic acid tert-butyl ester] | 187 to 189
12 | CC(C)(C)OC(=O)N1CCN(c2ccc(NC(=O)Nc3cc(Cl)ccc3NS(C)(=O)=O)cc2)CC1 [Example 12, 4-{4-[3-(5-chloro-2-methanesulfonylamino-phenyl)-ureido]-phenyl}-piperazine-1-carboxylic acid tert-butyl ester] | 127
13 | COc1ccccc1NC(=O)Nc1ccc(N2CCN(C(=O)OC(C)(C)C)CC2)cc1 [Example 13, 4-{4-[3-(2-methoxy-phenyl)-ureido]-phenyl}-piperazine-1-carboxylic acid tert-butyl ester] | 184
14 | CC(C)(C)OC(=O)N1CCN(c2ccc(NC(=O)Nc3ccccc3F)cc2)CC1 [Example 14, 4-{4-[3-(2-fluoro-phenyl)-ureido]-phenyl}-piperazine-1-carboxylic acid tert-butyl ester] | 164 to 166
15 | CC(C)(C)OC(=O)N1CCN(c2ccc(NC(=O)Nc3ccccc3Cl)cc2)CC1 [Example 15, 4-{4-[3-(2-chloro-phenyl)-ureido]-phenyl}-piperazine-1-carboxylic acid tert-butyl ester] | 196 to 197
16 | Cc1ccccc1NC(=O)Nc1ccc(N2CCN(C(=O)OC(C)(C)C)CC2)cc1 [Example 16, 4-[4-(3-o-tolyl-ureido)-phenyl]-piperazine-1-carboxylic acid tert-butyl ester] | 188 to 191
17 | CCc1ccccc1NC(=O)Nc1ccc(N2CCN(C(=O)OC(C)(C)C)CC2)cc1 [Example 17, 4-{4-[3-(2-ethyl-phenyl)-ureido]-phenyl}-piperazine-1-carboxylic acid tert-butyl ester] | 162
18 | CCCc1ccccc1NC(=O)Nc1ccc(N2CCN(C(=O)OC(C)(C)C)CC2)cc1 [Example 18, 4-{4-[3-(2-propyl-phenyl)-ureido]-phenyl}-piperazine-1-carboxylic acid tert-butyl ester] | 177 to 181
19 | Cc1ccc(C)c(NC(=O)Nc2ccc(N3CCN(C(=O)OC(C)(C)C)CC3)cc2)c1 [Example 19, 4-{4-[3-(2,5-dimethyl-phenyl)-ureido]-phenyl}-piperazine-1-carboxylic acid tert-butyl ester] | 219 to 220

Row | SMILES | melting point [°C]
20 | CN(C)c1ccc(NC(=O)Nc2ccc(N3CCN(C(=O)OC(C)(C)C)CC3)cc2)cc1 [Example 20, 4-{4-[3-(4-dimethylamino-phenyl)-ureido]-phenyl}-piperazine-1-carboxylic acid tert-butyl ester] | 207
21 | CCC(C)c1ccccc1NC(=O)Nc1ccc(N2CCN(C(=O)OC(C)(C)C)CC2)cc1 (stereo not shown) [Example 21, 4-{4-[3-(2-sec-butyl-phenyl)-ureido]-phenyl}-piperazine-1-carboxylic acid tert-butyl ester] | 177
22 | CCOc1ccc(NC(=O)Nc2ccc(N3CCN(C(=O)OC(C)(C)C)CC3)cc2)cc1 [Example 23, 4-{4-[3-(4-ethoxy-phenyl)-ureido]-phenyl}-piperazine-1-carboxylic acid tert-butyl ester] | 198 to 200
23 | CCc1ccc(NC(=O)Nc2ccc(N3CCN(C(=O)OC(C)(C)C)CC3)cc2)cc1 [Example 24, 4-{4-[3-(4-ethyl-phenyl)-ureido]-phenyl}-piperazine-1-carboxylic acid tert-butyl ester] | 204 to 205
24 | CCC(C)c1ccc(NC(=O)Nc2ccc(N3CCN(C(=O)OC(C)(C)C)CC3)cc2)cc1 (stereo not shown) [Example 25, 4-{4-[3-(4-sec-butyl-phenyl)-ureido]-phenyl}-piperazine-1-carboxylic acid tert-butyl ester] | 201 to 202
25 | CCCCOc1ccc(NC(=O)Nc2ccc(N3CCN(C(=O)OC(C)(C)C)CC3)cc2)cc1 [Example 26, 4-{4-[3-(4-butoxy-phenyl)-ureido]-phenyl}-piperazine-1-carboxylic acid tert-butyl ester] | 185 to 188
26 | CC(C)(C)OC(=O)N1CCN(c2ccc(NC(=O)Nc3cc(C(F)(F)F)ccc3F)cc2)CC1 [Example 27, 4-{4-[3-(2-fluoro-5-trifluoromethyl-phenyl)-ureido]-phenyl}-piperazine-1-carboxylic acid tert-butyl ester] | 241
27 | CC(C)(C)OC(=O)N1CCN(c2ccc(NC(=O)Nc3cc(C(F)(F)F)ccc3Cl)cc2)CC1 [Example 28, 4-{4-[3-(2-chloro-5-trifluoromethyl-phenyl)-ureido]-phenyl}-piperazine-1-carboxylic acid tert-butyl ester] | 221 to 223
28 | Cc1ccc(Cl)c(NC(=O)Nc2ccc(N3CCN(C(=O)OC(C)(C)C)CC3)cc2)c1 [Example 29, 4-{4-[3-(2-chloro-5-methyl-phenyl)-ureido]-phenyl}-piperazine-1-carboxylic acid tert-butyl ester] | 222 to 224
29 | CCc1cccc(NC(=O)Nc2ccc(N3CCN(C(=O)OC(C)(C)C)CC3)cc2)c1 [Example 30, 4-{4-[3-(3-ethyl-phenyl)-ureido]-phenyl}-piperazine-1-carboxylic acid tert-butyl ester] | 160
30 | Cc1cccc(NC(=O)Nc2ccc(N3CCN(C(=O)OC(C)(C)C)CC3)cc2)c1 [Example 31, 4-[4-(3-m-tolyl-ureido)-phenyl]-piperazine-1-carboxylic acid tert-butyl ester] | 169 to 172
31 | CC(C)(C)OC(=O)N1CCN(c2ccc(NC(=O)Nc3cccc(Cl)c3)cc2)CC1 [Example 32, 4-{4-[3-(3-chloro-phenyl)-ureido]-phenyl}-piperazine-1-carboxylic acid tert-butyl ester] | 163
32 | CCCCc1ccc(NC(=O)Nc2ccc(N3CCN(C(=O)OC(C)(C)C)CC3)cc2)cc1 [Example 34, 4-{4-[3-(4-butyl-phenyl)-ureido]-phenyl}-piperazine-1-carboxylic acid tert-butyl ester] | 167 to 170
33 | Cc1ccc(F)cc1NC(=O)Nc1ccc(N2CCN(C(=O)OC(C)(C)C)CC2)cc1 [Example 36, 4-{4-[3-(5-fluoro-2-methyl-phenyl)-ureido]-phenyl}-piperazine-1-carboxylic acid tert-butyl ester] | 206 to 208
34 | COc1ccc(C)cc1NC(=O)Nc1ccc(N2CCN(C(=O)OC(C)(C)C)CC2)nc1 [Example 38, 4-{5-[3-(2-methoxy-5-methyl-phenyl)-ureido]-pyridin-2-yl}-piperazine-1-carboxylic acid tert-butyl ester] | 185 to 186
35 | CCOc1ccc(C)cc1NC(=O)Nc1ccc(N2CCN(C(=O)OC(C)(C)C)CC2)cc1 [Example 41, 4-{4-[3-(2-ethoxy-5-methyl-phenyl)-ureido]-phenyl}-piperazine-1-carboxylic acid tert-butyl ester] | 105 to 107
36 | CCOc1ccc(F)cc1NC(=O)Nc1ccc(N2CCN(C(=O)OC(C)(C)C)CC2)cc1 [Example 42, 4-{4-[3-(2-ethoxy-5-fluoro-phenyl)-ureido]-phenyl}-piperazine-1-carboxylic acid tert-butyl ester] | 168 to 169
37 | CCOc1ccc(Cl)cc1NC(=O)Nc1ccc(N2CCN(C(=O)OC(C)(C)C)CC2)cc1 [Example 43, 4-{4-[3-(5-chloro-2-ethoxy-phenyl)-ureido]-phenyl}-piperazine-1-carboxylic acid tert-butyl ester] | 165 to 167
